SMILES strings stand for the structures. Where “and” joins values, the source holds several entries; their conditions need not be identical. Equal entries are not always repeated.

In the first test the test system is Sebekia benihana IFO14309. In words: Induction of D-aminoacylase, experiment 2 (seed culture, PY liquid medium, 0.10% inducer). The format is cell-based. As to conditions: 20 mM N-acetyl-D-methionine, 30° C., 10 min. The procedure: Second, a seed culture was prepared by incubating the strain in test tubes, each containing 5.0 ml of PY liquid medium for 71 hours. Then, 0.4 ml of the seed culture was inoculated with a 2-ml Komagome pipette into test tubes, each containing 8.0 ml of PY liquid medium supplemented with 0.10% DL-glutamine, 0.10% DL-histidine, 0.10% DL-isoleucine, 0.10% DL-phenylalanine, 0.10% proline, 0.10% DL-threonine, 0.10% DL-tryptophan, or 0.10% DL-valine as inducers, and cultivated for 74 hours with shaking (experiment 2).
(§1) From the culture broth obtained in experiments 1, 2, and 3, the cells were collected by centrifugation at 8000 rpm (7000×g) for 20 min with a refrigerated centrifuge (Hitachi Koki Co., Ltd.). The collected cells were washed with 50 mM Tris-HCl buffer (pH 7.5), collected again by centrifugation using the same centrifuge, then stored at -20° C.
(§2) The stored cells were suspended in 20 ml of 50 mM Tris-HCl buffer (pH 7.5) and were disrupted by sonication at 200 W for 15 min. The lysate was centrifuged at 15,000 rpm for 30 min with the above centrifuge, and the supernatant was obtained as a crude enzyme solution.
(§3) The enzymatic reaction was performed in 1.0 ml of a reaction system containing 20 mM N-acetyl-D-methionine, 50 mM Tris-HCl buffer (pH 7.5), 1 mM CoCl2, and 100 μl of the enzyme solution at 30° C. for 20 min (experiment 1), 10 min (experiment 2), and 5 min (experiment 3). The reaction was stopped by adding a TCA solution.
With `NC(Cc1ccccc1)C(=O)O` (racemic) [DL-Phe, DL-phenylalanine], the Activity is given as 0.190 U/ml of broth and the Specific activity was 0.0701 U/mg.

As for `CC[C@H](C)[C@H](N)C(=O)O` (racemic) [DL-Ile, DL-isoleucine], the Activity is listed as 0.214 U/ml of broth and the Specific activity came out at 0.0799 U/mg.

Turning to `C[C@@H](O)[C@H](N)C(=O)O` (racemic) [DL-Thr, DL-threonine], the Activity is given as 0.0163 U/ml of broth and the Specific activity is reported as 0.00587 U/mg.

For `O=C(O)[C@@H]1CCCN1` (racemic) [DL-Pro, proline], the Activity is listed as 0.00867 U/ml of broth and the Specific activity is recorded as 0.00286 U/mg.

Take `NC(Cc1c[nH]cn1)C(=O)O` (racemic) [DL-His, DL-histidine]: the Activity is 0.0144 U/ml of broth and the Specific activity turned out to be 0.0064 U/mg.

With `NC(Cc1c[nH]c2ccccc12)C(=O)O` (racemic) [DL-Trp, DL-tryptophan], the Activity was 0.312 U/ml of broth and the Specific activity was 0.119 U/mg.

The next test concerns Sebekia benihana IFO14309. In words: Induction of D-aminoacylase, experiment 3 (seed culture, 231 liquid medium, 0.05% inducer). Format: cell-based. To be noted: experiment 3; 20 mM N-acetyl-D-methionine, 30° C., 5 min. The procedure:
Third, a seed culture was prepared by incubating the strain in test tubes, each containing 5.0 ml of PY liquid medium for 51 hours with shaking. The seed culture (0.4 ml) was then inoculated with a 2-ml Komagome pipette into test tubes, each containing 8.0 ml of 231 liquid medium (1.0% maltose; 0.2% N.Z.Amine, Type A; 0.1% yeast extract; 0.1% meat extract; pH 7.3) supplemented with 0.05% D-phenylalanine, 0.05% D-tryptophan, 0.05% D-valine, 0.05% L-phenylalanine, 0.05% L-tryptophan, or 0.05% L-valine as inducers, and cultivated for 48 hours with shaking (experiment 3).
as §1, §2, §3
For the compound `N[C@H](Cc1c[nH]c2ccccc12)C(=O)O` [D-Trp, D-tryptophan], the Activity is on record as 0.913 U/ml of broth and the Specific activity was 0.537 U/mg.

With `CC(C)[C@H](N)C(=O)O` [L-Val, L-valine], the Activity is reported as 0.0265 U/ml of broth and the Specific activity was 0.0161 U/mg.

`N[C@@H](Cc1c[nH]c2ccccc12)C(=O)O` [L-Trp, L-tryptophan]: the Activity is given as 0.0243 U/ml of broth and the Specific activity was 0.0134 U/mg.

With `CC(C)[C@@H](N)C(=O)O` [D-Val, D-valine], the Activity is 1.27 U/ml of broth and the Specific activity is given as 0.780 U/mg.

For the compound `N[C@@H](Cc1ccccc1)C(=O)O` [L-Phe, L-phenylalanine], the Activity is given as 0.00973 U/ml of broth and the Specific activity came out at 0.0064 U/mg.

For `N[C@H](Cc1ccccc1)C(=O)O` [D-Phe, D-phenylalanine], the Activity is on record as 0.479 U/ml of broth and the Specific activity was 0.303 U/mg.

The test is the same for the next values; noted with them: used as inducers (Table 3).
On to `N[C@H](Cc1c[nH]c2ccccc12)C(=O)O` [D-Trp, D-tryptophan], for which the “Induction of the enzyme (in words)” value was “induced well”.

On to `CC(C)[C@@H](N)C(=O)O` [D-Val, D-valine], for which the “Induction of the enzyme (in words)” value was “induced well”.

Turning to `N[C@H](Cc1ccccc1)C(=O)O` [D-Phe, D-phenylalanine], the “Induction of the enzyme (in words)” value is “induced well”.

A further test relates to D-aminoacylase derived from Sebekia benihana IFO14309.
Assay: not given
The format is biochemical.
Conditions: not given
The protocol: (§4) The enzymatic reaction was performed in the same manner as in (1) except that the metal salts and enzyme inhibitors listed in Tables 10 and 11 (1 mM or 10 mM) were added to the reaction mixture.
`[Cl][Cu][Cl]` [CuCl2]: the “Effect of metal ions on the enzyme (in words)” value (“Effect of metal ions” for short) was “inhibited”.

Regarding `[Cl][Hg][Cl]` [HgCl2], the “Effect of metal ions” value is “inhibited”.

On to `[Cl-].[Na+]` [NaCl], for which the D-Met was 1.3 mM and 1.1 mM; the Residual activity was 108% and 92%.

`[Cl-].[Cl-].[Co+2]` [CoCl2]: the “Effect of metal ions” value is on record as “inhibited”.

`O=C(O)CN(CCN(CC(=O)O)CC(=O)O)CC(=O)O` [EDTA · 2Na]: the D-Met was 1.2 mM and 1.3 mM; the Residual activity was 108%.

Regarding `[Cl][Fe][Cl]` [FeCl2], the “Effect of metal ions” value was “inhibited”.

Take `[Cl-].[Cl-].[Zn+2]` [ZnCl2]: the “Effect of metal ions” value is reported as “inhibited”.

Consider `[Cl][Ni][Cl]` [NiCl2], for which the “Effect of metal ions” value is given as “inhibited”.

The test is the same for the next values; noted with them: metal salt 1 mM.
In the case of `[Ca+2].[Cl-].[Cl-]` [CaCl2], the D-Met amounted to 1.3 mM and the Residual activity was 108%.

Regarding `[Cl][Mn][Cl]` [MnCl2], the D-Met is 1.3 mM and the Residual activity came out at 108%.

Turning to `[Cl][Cu][Cl]` [CuCl2], the D-Met is 0.13 mM and the Residual activity amounted to 11%.

For `[Cl][Hg][Cl]` [HgCl2], the D-Met worked out at 0.38 mM and the Residual activity amounted to 32%.

For the compound `[Cl-].[Cl-].[Co+2]` [CoCl2], the D-Met was found to be 0.65 mM and the Residual activity is given as 54%.

As for `[Ba+2].[Cl-].[Cl-]` [BaCl2], the D-Met was 1.2 mM and the Residual activity amounted to 100%.

For the compound `[Cl][Fe][Cl]` [FeCl2], the D-Met turned out to be 0.24 mM and the Residual activity is 20%.

On to `[Cl-].[Cl-].[Zn+2]` [ZnCl2], for which the D-Met was 0.50 mM and the Residual activity is reported as 42%.

Turning to `[Cl][Ni][Cl]` [NiCl2], the D-Met was 0.53 mM and the Residual activity came to 44%.

`[Cl-].[K+]` [KCl]: the D-Met is on record as 1.2 mM and the Residual activity is recorded as 100%.

Take `[Cl-].[Cl-].[Mg+2]` [MgCl2]: the D-Met came to 1.3 mM and the Residual activity is recorded as 108%.

Still in this test, the particulars now being: metal salt 10 mM.
`[Ca+2].[Cl-].[Cl-]` [CaCl2]: the D-Met came to 1.1 mM and the Residual activity is recorded as 92%.

Turning to `[Cl][Mn][Cl]` [MnCl2], the D-Met is on record as 0.73 mM and the Residual activity came to 61%.

For `[Cl][Cu][Cl]` [CuCl2], the D-Met came to 0 mM and the Residual activity is listed as 0%.

Turning to `[Cl][Hg][Cl]` [HgCl2], the D-Met turned out to be 0 mM and the Residual activity is recorded as 0%.

On to `[Cl-].[Cl-].[Co+2]` [CoCl2], for which the D-Met came out at 0.11 mM and the Residual activity came to 9.2%.

Regarding `[Ba+2].[Cl-].[Cl-]` [BaCl2], the D-Met came out at 1.1 mM and the Residual activity is 92%.

On to `[Cl][Fe][Cl]` [FeCl2], for which the D-Met amounted to 0.035 mM and the Residual activity worked out at 2.9%.

Take `[Cl-].[Cl-].[Zn+2]` [ZnCl2]: the D-Met stood at 0 mM and the Residual activity was found to be 0%.

On to `[Cl][Ni][Cl]` [NiCl2], for which the D-Met is listed as 0.035 mM and the Residual activity is 2.9%.

Regarding `[Cl-].[K+]` [KCl], the D-Met is on record as 1.1 mM and the Residual activity is listed as 92%.

With `[Cl-].[Cl-].[Mg+2]` [MgCl2], the D-Met came to 1.2 mM and the Residual activity came out at 100%.

The test system is the same in a further test. Description: Influences of inhibitors on the activity of the enzyme. Format: biochemical.
Conditions: not given
The procedure: as §4
Take `O=C(O)c1cc[c]([Hg][Cl])cc1` [PCMB, p-chloromercuribenzoic acid]: the “Effect of inhibitors on the enzyme (in words)” value (“Effect of inhibitors” for short) was “inhibited”.

In the case of `O=C(O)CI` [ICH2 COOH, iodoacetic acid], the “Effect of inhibitors” value was “inhibited”.

In the case of `O=C(O)CN(CCN(CC(=O)O)CC(=O)O)CC(=O)O` [EDTA], the D-Met was found to be 1.6 mM, the “Effect of inhibitors” value is reported as “inhibited” and the Residual activity turned out to be 100%.

The test is the same for the next values; noted with them: column 1 mM; PCMB was used at 0.01 mM.
Take `O=C(O)c1cc[c]([Hg][Cl])cc1` [PCMB, p-chloromercuribenzoic acid]: the D-Met is on record as 1.8 mM and the Residual activity worked out at 112%.

Staying with this test, now noted: column 10 mM; PCMB was used at 0.1 mM.
With `O=C(O)c1cc[c]([Hg][Cl])cc1` [PCMB, p-chloromercuribenzoic acid], the D-Met is 1.6 mM and the Residual activity came to 100%.

The same test, now with this note: inhibitor 1 mM.
Regarding `c1ccc(-c2ccccn2)nc1` [2,2'-Bipyridyl], the D-Met worked out at 1.6 mM and the Residual activity amounted to 100%.

On to `CCN1C(=O)C=CC1=O` [N-ethyl-maleimide], for which the D-Met is 1.7 mM and the Residual activity came out at 106%.

Regarding `[F-].[Na+]` [NaF], the D-Met came out at 1.6 mM and the Residual activity is 100%.

`OC(CS)C(O)CS` (stereo not shown) [DTT]: the D-Met was 0.13 mM and the Residual activity was 8.1%.

The test is the same for the next values; noted with them: inhibitor 10 mM.
With `c1ccc(-c2ccccn2)nc1` [2,2'-Bipyridyl], the D-Met was 1.4 mM and the Residual activity amounted to 88%.

On to `CCN1C(=O)C=CC1=O` [N-ethyl-maleimide], for which the D-Met was 1.1 mM and the Residual activity was determined as 69%.

In the case of `[F-].[Na+]` [NaF], the D-Met turned out to be 1.4 mM and the Residual activity amounted to 88%.

`OC(CS)C(O)CS` (stereo not shown) [DTT]: the D-Met came to 0.055 mM and the Residual activity worked out at 3.4%.

(Values after US6030823A, “D-aminoacylase” (Daicel Chemical Industries, Ltd., priority 1998, dated 2000).)
